The values below come from US9932346B2, “Pyrrolopyrimidines for use in influenza virus infection” (Janssen Sciences Ireland UC, priority 2014, dated 2018).

Molecules are shown by their SMILES.

In series [1] the test system is influenza virus A/Taiwan/1/86 (H1N1). The series is described as follows: organism not typed. The settings on record: MDCK cells infected with influenza A/Taiwan/1/86 (H1N1), three days post-virus exposure, CPE by ATP levels. The format is cell-based.
In the next series the test system is MDCK cells. The following applies: dog, 3 days.
The nature of another series: in vitro. The following applies: dog.

For orientation: IC50 means the concentration at which inhibition is half-maximal. Higher therefore signals weaker potency. `Cn1cnc(C(=O)N[C@H]2CCC[C@@H](Nc3nc(-c4c[nH]c5ncncc45)ncc3F)C2)c1` [Compound 48] gave an IC50 in series [1] of 0.035 µM. Also, in the series on MDCK cells, the CC50 is above 25 µM.

Consider `Cc1cc(C(=O)N[C@@H]2CCC[C@@H](Nc3nc(-c4c[nH]c5ncncc45)ncc3F)C2)no1` (racemic) [Compound 34], for which, in series [1] (MDCK, 72 h), the IC50 was 0.04 µM. The CC50 at 3 days in “in vitro” is above 25 µM.
